What was measured:
P38 MAP kinase [1] = molecular target: T1, P38 MAP kinase (Homo sapiens, UniProt Q16539); assay: HPLC based Chemical Array Assay: protein-bound compounds separated from free compounds, UV and mass spectrum of protein fraction; type: binding; conditions: for identity by mass spectrum of the compound extracted from the mixture and released from the protein: 5 uM P38 MAP kinase + 5 uM mixture of Quinine and 86002, Diol column
T1 construct: purchased Sigma
Description: (§1) Drug-like chemical compounds representing a collection of drug-like chemical scaffolds (Sigma-Aldrich, ICN, Calbiochem) were weighed and mixed to a final concentration of 20 uM each in 50 mM ammonium acetate pH 7, 10% methanol. 1 uM to 20 uM tubulin or P38 MAP kinase (Sigma) were dispensed into HPLC low volume sample cuvettes (Waters) and mixed with 0.5 uM to 20 uM compounds.
(§2) The compounds were eluted using an acetonitrile gradient past a UV detector and into a TOF mass spectrometer (Micromass LCT). […] In other mass spectrometry instruments, fragmentation can be achieved in a collision cell. The fragmentation pattern which is characteristic for each compound consists of the larger parent peak and other peaks representing fragments of the chemical compound or their isotopes. […] Alternatively, one or more characteristic isotope(s) of the parent peak representing the molecular weight of the compound was compared with the standard to identify the compound that bound the protein target. In another alternative analysis, the parent peak representing the molecular weight of the compound was itself compared with the standard to identify the compound. Sometimes, the combination of these methods was also used to identify the compound.

tubulin = assay: as above; type: binding; conditions: 10 compound mixture 0.5 uM each, tubulin 0, 5 and 20 uM, GFF II column
Description: as §1, §2

P38 MAP kinase [2] = molecular target: T1, P38 MAP kinase; conditions: stated as a known property of the ligand; cited from earlier work

T1 sequence (Q16539 whole entry): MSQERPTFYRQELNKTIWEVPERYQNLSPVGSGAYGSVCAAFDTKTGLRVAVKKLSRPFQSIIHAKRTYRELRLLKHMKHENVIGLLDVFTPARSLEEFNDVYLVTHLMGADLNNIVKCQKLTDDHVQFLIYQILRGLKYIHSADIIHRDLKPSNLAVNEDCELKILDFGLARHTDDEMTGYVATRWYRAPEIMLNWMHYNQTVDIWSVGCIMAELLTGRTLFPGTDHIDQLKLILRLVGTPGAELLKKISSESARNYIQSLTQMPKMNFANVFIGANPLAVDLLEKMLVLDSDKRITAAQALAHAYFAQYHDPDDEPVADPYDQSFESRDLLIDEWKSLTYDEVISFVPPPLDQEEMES

mass spectrum of the collected protein fraction compared with the standard (P38 MAP kinase [1]; 5 uM P38 MAP kinase + 5 uM compound alone, Diol column) | reduction of the compound's UV peak (unbound compound) with increasing P38 (P38 MAP kinase [1]; 2-compound mixture 5 uM each, P38 0, 2.5, 5 and 10 uM, Diol column) | level of the compound's characteristic peaks in the mass spectrum of the protein fraction (P38 MAP kinase [1]; 10 compound mixture 0.5 uM each, GFF II column) | reduction of the compound's UV peak (unbound compound) with increasing P38 (P38 MAP kinase [1]; 10 compound mixture 0.5 uM each, P38 0, 3.5 and 5 uM, GFF II column) | level of the compound's characteristic peak in the mass spectrum of the protein fraction (P38 MAP kinase [1]; 100 compound mixture 20 uM each, P38 2 uM, GFF II column) | Compound | identity by mass spectrum of the compound extracted from the mixture and released from the protein (P38 MAP kinase [1]) | reduction of the compound's UV peak (unbound compound) with increasing tubulin (tubulin) | affinity for the P38 MAP kinase protein target (P38 MAP kinase [2])
– | – | – | – | – | C=C[C@H]1CN2CC[C@H]1C[C@H]2[C@H](O)c1ccnc2ccc(OC)cc12.Cl [quinine, quinine monohydrochloride] | not quinine | – | –
corresponded to the 86002 standard | concentration dependant reduction | at a level far higher than other peaks | concentration dependent reduction | at a level far higher than other peaks | Fc1ccc(-c2nc3n(c2-c2ccncc2)CCS3)cc1 [SKB86002] | identified as 86002 | negligible reduction | micromolar affinity
